Patent publication US20240287042A1, “NOVEL COMPOUND HAVING INHIBITORY ACTIVITY AGAINST PENDRIN, AND PHARMACEUTICAL USES THEREOF” (UIF (University Industry Foundation), Yonsei University, priority 2021, published 2024)

How the values were obtained:
human WT CFTR = target: T1, human WT CFTR (Homo sapiens, UniProt P13569); assay: CFTR I− transport activity, YFP fluorescence, forskolin-activated; format: cell-based; settings: for Effect on CFTR activity: 100 μM
T1 construct: expressed in transfected cells
Procedure: Chinese hamster ovary (CHO)-K1 cells or LN-215 cells were cultured in DMEM medium containing 10% fetal bovine serum (FBS), 100 units/ml of penicillin and 100 μg/ml streptomycin. CHO-K1 cells or LN-215 cells were stably transfected with pcDNA3.1 encoding the halide sensor YFP-H148Q/I152L/F46L and human wild-type (WT)-SLC26A9. Fisher rat thyroid (FRT) cells stably transfected with YFP-H148Q/I152L/F46L and human wild type (WT)-CFTR or human wild type (WT)-ANO1 were cultured in DMEM/F-12 medium containing 10% fetal bovine serum (FBS), 100 units/ml of penicillin, and 100 μg/ml of streptomycin.
LN-215 cells expressing human WT SLC26A9 and YFP-F46L/H148Q/I152L, and FRT cells expressing human WT CFTR or ANO1 and YFP-F46L/H148Q/I152L were plated in 96-well microplates at a density of 2×10^4 cells per well, and cultured for 48 hours. […] After culturing at 37° C. for 10 minutes, the 96-well plate was located on the FLUOstar Omega Microplate Reader (BMG Labtech, Ortenberg, Germany) for a fluorescence assay. For assay of the activity of […], fluorescence was recorded continuously (400 ms per point) for 1 second (baseline), whereby each well was assayed individually for SLC26A9-mediated I-influx. Then, 50 μL of NaI-substituted HEPES buffered solution (replacing NaCl with NaI) was added using a liquid injector at 1 second, and YFP fluorescence was recorded for 6 seconds. For assay of the activity of CFTR, fluorescence was recorded continuously (400 ms per point) for 2 seconds (baseline), whereby each well was assayed individually for CFTR-mediated I^− influx. Then, 50 μL of NaI-substituted HEPES buffered solution (replacing NaCl with NaI) was added using a liquid injector at 2 second, and YFP fluorescence was recorded for 8 seconds. For assay of the activity of ANO1, fluorescence was recorded continuously (400 ms per point) for 1 second (baseline), whereby each well was assayed individually for ANO1-mediated I^− influx. […] The initial iodide influx rate was determined from the initial slope of fluorescence by nonlinear regression, after the injection of iodide. […]

SLC26A4 (pendrin) = assay: Pendrin protein and mRNA expression after LPS in hAEC; format: cell-based, human
[1] = test system: LPS-induced lung injury model; assay: LPS-induced lung injury model in mice, i.v. treatment after LPS; format: in vivo, C57BL/6N mice
Procedure: Lipid polysaccharide (LPS, 200 μg/head) dissolved in 50 μL PBS was injected intranasally into C57BL/6N mice. YPI-A4948 (1, 10 μg/kg) was administered intravenously twice in total at 6 hours and 12 hours after LPS injection, and the mice were euthanized at 24 hours after LPS inhalation to remove the lungs. Immune cell recruitment was confirmed through bronchoalveolar lavage fluid (BALF) obtained by injecting 1 mL of PBS into the removed lung and then re-extracting the PBS. Lung injury parameters were measured by ELISA after lysing lung tissue. The expression level of pendrin protein was confirmed by Western blot, and this was digitalized and measured using a shade measuring instrument (mean±SEM, n=3 per group). Pendrin mRNA levels were determined by real-time quantitative PCR in extracted lung tissue (mean±SEM, n=3 per group). IL-10, MIP-2, IL-6, and TNF-α levels were measured by ELISA in lung tissue lysates (mean±SEM n=4-7 mice per group).

[2] = test system: human nasal epithelial cells (HNE); assay: Volume of airway surface liquid (ASL) in IL-4-treated differentiated human nasal epithelial cells; format: cell-based; settings: 30 μM, IL-4 10 ng/ml, 48 hours
Procedure: For differentiation of primary cultures of human nasal epithelial cells, cells were cultured in Transwell (Transwell, Costar Co., Cambridge, MA) with 0.45 µm pores at a density of 2×10^5 cells/cm^2. Cells were cultured in a 1:1 mixed culture medium of Dulbecco's modified Eagle's medium (Lonza) and bronchial epithelial growth medium (Lonza) supplemented with the following growth factors, while changing the medium every 2 to 3 days. The cells were cultured in a precipitated state in the culture medium for the first 7 days, and during the subsequent culture period, and cultured by exposing the upper part of transwell to air. After establishment of the air-liquid interface (ALI), cells were cultured and differentiated for 21 days. At all stages of culture, the cell culture medium was maintained at 5% CO2 and 37° C.
Vehicle, IL-4 (10 ng/ml), and YPI-H05 (30 μM) were added to the basal fluid of transwell in which differentiated NHE cells expressing normal pendrin were growing, and cultured at 37° C. under 5% CO2 in an incubator for 48 hours. After cultured, a round filter paper with a diameter of 10 mm was placed in the lumen side of the transwell and left for 10 seconds to absorb moisture from the airway surface liquid. Changes in the volume of airway surface liquid were measured through increased filter paper weight using a precision electronic balance.

[3] = i.v. 1, 10 μg/kg at 6 and 12 h after LPS, vs LPS only

T1 sequence (P13569 whole entry): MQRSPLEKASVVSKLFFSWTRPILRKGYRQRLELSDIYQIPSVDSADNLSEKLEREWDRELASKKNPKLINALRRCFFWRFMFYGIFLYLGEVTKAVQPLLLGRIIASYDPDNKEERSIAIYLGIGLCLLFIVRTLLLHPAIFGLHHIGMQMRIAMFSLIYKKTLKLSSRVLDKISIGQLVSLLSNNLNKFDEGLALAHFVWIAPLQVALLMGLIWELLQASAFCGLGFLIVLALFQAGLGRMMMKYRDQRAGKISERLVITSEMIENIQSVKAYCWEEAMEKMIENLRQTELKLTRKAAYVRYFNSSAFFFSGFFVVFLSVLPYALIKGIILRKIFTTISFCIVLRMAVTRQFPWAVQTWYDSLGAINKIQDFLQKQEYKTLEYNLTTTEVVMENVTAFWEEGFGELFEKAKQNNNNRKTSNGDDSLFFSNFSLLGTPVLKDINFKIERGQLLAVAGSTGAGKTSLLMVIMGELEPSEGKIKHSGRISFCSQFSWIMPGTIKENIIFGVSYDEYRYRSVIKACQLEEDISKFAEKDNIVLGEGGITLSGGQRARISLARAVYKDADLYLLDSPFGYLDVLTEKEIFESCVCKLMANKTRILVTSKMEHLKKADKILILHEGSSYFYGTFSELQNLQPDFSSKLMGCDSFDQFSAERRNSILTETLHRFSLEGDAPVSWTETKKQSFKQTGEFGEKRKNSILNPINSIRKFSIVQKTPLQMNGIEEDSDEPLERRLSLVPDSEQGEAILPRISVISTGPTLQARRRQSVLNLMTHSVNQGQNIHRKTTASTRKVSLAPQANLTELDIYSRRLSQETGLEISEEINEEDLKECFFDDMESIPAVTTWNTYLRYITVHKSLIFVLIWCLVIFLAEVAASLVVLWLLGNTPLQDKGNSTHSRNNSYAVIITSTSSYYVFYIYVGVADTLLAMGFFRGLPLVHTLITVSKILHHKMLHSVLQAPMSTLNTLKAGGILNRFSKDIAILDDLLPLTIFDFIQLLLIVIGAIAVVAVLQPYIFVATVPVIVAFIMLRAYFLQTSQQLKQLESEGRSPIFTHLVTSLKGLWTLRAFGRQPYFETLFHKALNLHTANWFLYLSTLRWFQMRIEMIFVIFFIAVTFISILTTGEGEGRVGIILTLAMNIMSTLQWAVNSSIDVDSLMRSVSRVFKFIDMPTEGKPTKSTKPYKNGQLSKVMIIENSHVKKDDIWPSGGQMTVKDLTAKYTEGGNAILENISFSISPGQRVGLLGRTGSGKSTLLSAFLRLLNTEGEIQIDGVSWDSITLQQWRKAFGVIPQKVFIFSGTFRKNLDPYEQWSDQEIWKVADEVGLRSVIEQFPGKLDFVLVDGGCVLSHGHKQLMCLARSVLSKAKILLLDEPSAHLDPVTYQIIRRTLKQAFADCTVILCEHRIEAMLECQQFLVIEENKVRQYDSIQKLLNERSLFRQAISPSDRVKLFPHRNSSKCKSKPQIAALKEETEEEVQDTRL

SMILES	Effect on CFTR activity (human WT CFTR; Example 14, CHO-K1 cells, FIG. 16)	Effect on CFTR activity (human WT CFTR; FRT-YFP cells, FIG. 3)	Protein expression level of SLC26A4 (pendrin) (SLC26A4 (pendrin); LPS treatment after YPI-A4948 pretreatment in vitro)	mRNA expression level of pendrin (SLC26A4 (pendrin); increased by LPS in vitro)	Lung inflammatory cytokine IL-6 ([1]; ELISA in lung tissue lysates)	Lung inflammatory cytokine IL-10 ([1]; ELISA in lung tissue lysates)	Lung inflammatory cytokine MIP-2 ([1]; ELISA in lung tissue lysates)	Lung inflammatory cytokine TNF-α ([1]; ELISA in lung tissue lysates)	BALF protein concentration [1, 3]	BALF total cell counts [1, 3]	Level of pendrin mRNA in lung [1, 3]	Level of pendrin protein in lung [1, 3]	inhibition at 100 µM (human WT CFTR; FRT-YFP cells, FIG. 3) [%]	Volume of airway surface liquid (ASL) reduced by IL-4 [2]
Cc1ccc2[nH]c(C(=O)O)c(CC(=O)N3CCN(c4c(C)cccc4Cl)CC3)c2c1 [YPI-A4948, 3-(2-(4-(2-Chloro-6-methylphenyl)piperazin-1-yl)-2-oxoethyl)-5-methyl-1H-indole-2-carboxylic acid]	almost no effect	almost no effect	inhibited by YPI-A4948 in a dose-dependent manner	not statistically significantly reduced	statistically significantly reduced	statistically significantly reduced	statistically significantly reduced	statistically significantly reduced	significantly reduced	significantly reduced	significantly reduced	significantly reduced		
Cc1ccc(C)c(N2CCN(C(=O)Cc3c(C(=O)O)[nH]c4ccc(Cl)cc34)CC2)c1 [YPI-H05, 5-chloro-3-(2-(4-(2,5-dimethylphenyl)piperazin-1-yl-)-2-oxoethyl)-1H-indole-2-carboxylic acid]													~50	significantly increased
